Where two headings read alike, the source gives them in different places. Blank lines part the entries; values can stand above or below the compound they belong to.
Legend:
[1] = test system: Candida albicans ATCC 10231; assay: Antimicrobial agar cup-plate assay, C. albicans; format: cell-based; design: key to Inhibition Zone (mm) C. albicans: -: no activity; settings: for Inhibition Zone (mm) C. albicans: 0.1 mL of compound in DMF, overnight incubation, mean ± SD, at least three experiments
Procedure: (§1) The antimicrobial activity of all newly synthesized compounds was determined using the agar cup-plate method using the Hi-Media agar medium. Xanthotoxin, tobramycin, and amphotericin B were used as reference drugs. All newly synthesized compounds were tested against two strains of Gram-positive bacteria (Bacillus subtilis ATCC 14579 and Staphylococcus aureus ATCC 25923), Gram-negative bacteria (Escherichia coli ATCC 25922), and yeast (Candida albicans ATCC 10231).
(§2) The nutrient agar medium consists of 0.3% of beef extract, 0.5% of peptone, 0.1% dipotassium hydrogen phosphate, and 1.5% agar. Broth cultures of the organisms were prepared by incubating slant agar seeded with the organisms overnight.
(§3) The prepared broth culture (0.02 mL) was carefully added to sterile Petri dishes. Then, 10 mL of the liquefied nutrient agar medium was poured into each dish, mixed uniformly, and allowed to solidify. Using a sterilized cork borer, cups (9 mm) were scooped out of the agar media contained in the Petri dishes. Each test compound (50 mg) was dissolved in 1 mL DMF (50 mg mL^−1), which was used as a stock solution to carry out the twofold dilution technique. A fixed volume (0.1 mL) of the tested compounds dissolved in dimethylformamide (DMF) was added. Each plate contained a cup filled with DMF to disregard the effect of solvent. Additionally, two other cups were filled with tobramycin and xanthotoxin being used as reference drugs. The plates were incubated overnight to examine the antimicrobial activity. Zones of inhibition obtained by each test compound were measured in millimeters and the results are recorded in Table 2.
(§4) GraphPad Prism-version 5 (GraphPad Software, Inc., La Jolla, CA, USA) was used for statistical analysis.

[2] = test system: Staphylococcus aureus ATCC 25923; assay: Antimicrobial agar cup-plate assay, S. aureus; format: cell-based; design: key: -: no activity; settings: 0.1 mL of compound in DMF, overnight incubation, mean ± SD, at least three experiments
Procedure: as §1, §2, §3, §4

[3] = test system: Bacillus subtilis ATCC 14579; assay: Photosensitizing assay (MIC before and after UV irradiation, agar cup-plate); format: cell-based; settings: for MIC: Bacillus subtilis, ATCC14579, light or radiation study; for photosensitizing activity against B. subtilis (in words): after 20 min of irradiation
Procedure: The photosensitizing activity was determined using the agar cup-plate method (described in Section 2.3) with Hi-Media agar medium. The antibacterial activity against Bacillus subtilis ATCC 14579 was measured before and after exposure to UV lamp (365 nm). The diameters of the inhibition zones were measured in mm and the results were compared with xanthotoxin. The tested organism used was Bacillus subtilis.
For the photosensitizing activity, xanthotoxin was used as a reference drug and DMF as a negative control. The minimum inhibitory concentrations (MIC) were determined using the agar cup-plate method. Each test compound (50 mg) was dissolved in 1 mL DMF (50 mg mL^−1), which was used as a stock solution to carry out the twofold dilution technique. The sample size for all the compounds was adjusted to 0.1 mL. The solution of the test compound (0.1 mL) was added to the cups. The plates were divided into test plates and duplicate plates. Before irradiation, the test plates were incubated in the dark at 37 °C for 3 h to permit the diffusion of the tested compounds through the agar layer. The duplicate plates were incubated overnight and used as a control for the determination of the antibacterial activity. The covers were removed from the test plates, and the dishes were exposed to UV lamp (365 nm) for 20 min. After irradiation, the plates were left overnight in the dark at 37 °C. MIC, the least concentration preventing visible bacterial growth, was determined in both the control and test, indicating the antibacterial and photosensitizing activity of the tested compounds, respectively.
To evaluate the significance of the difference in the results, each experiment was repeated at least three times. […] GraphPad Prism-version 5 (GraphPad Software, Inc., La Jolla, CA, USA) was used to perform statistical analysis of the results.

[4] = test system: Bacillus subtilis ATCC 14579; assay: Antimicrobial agar cup-plate assay, B. subtilis; format: cell-based; settings: 0.1 mL of compound in DMF, overnight incubation, mean ± SD, at least three experiments
Procedure: as §1, §2, §3, §4

[5] = test system: Escherichia coli ATCC 25922; assay: Antimicrobial agar cup-plate assay, E. coli; format: cell-based; design: key to Inhibition Zone (mm) E. coli: -: no activity; settings: for Inhibition Zone (mm) E. coli: 0.1 mL of compound in DMF, overnight incubation, mean ± SD, at least three experiments
Procedure: as §1, §2, §3, §4

[6] = 20 min, B. subtilis, after irradiation with UV lamp (365 nm) for 20 min (photosensitizing activity), 100 μL per cup, read-out: MIC (mg mL^−1) Test
[7] = 20 min, B. subtilis, after irradiation with UV lamp (365 nm) for 20 min (photosensitizing activity), read-out: MIC (mM) Test
[8] = B. subtilis, without irradiation (antibacterial activity), 100 μL per cup, read-out: MIC (mg mL^−1) Control
[9] = B. subtilis, without irradiation (antibacterial activity), read-out: MIC (mM) Control

Compound: C[C@@H]1[C@H](O)[C@@H](C)/C=C/C=C/C=C/C=C/C=C/C=C/C=C/[C@H](O[C@@H]2O[C@H](C)[C@@H](O)[C@H](N)[C@@H]2O)C[C@@H]2O[C@](O)(C[C@@H](O)C[C@@H](O)[C@H](O)CC[C@@H](O)C[C@@H](O)CC(=O)O[C@H]1C)C[C@H](O)[C@H]2C(=O)O [Amphotercin B, amphotericin B, reference compound]
Inhibition Zone (mm) C. albicans [1]: 14 ± 1.414 mm

Compound: CCc1cc2c(C)cc(=O)oc2cc1OC(C)C(C)=O (centres unmarked) [Compound 2a, 6-Ethyl-4-methyl-7-(3-oxobutan-2-yloxy)-2H-1-benzopyran-2-one]
Inhibition Zone (mm) S. aureus [2]: 14 ± 1.414 mm
MIC [3, 6]: 6250 µg/mL
MIC [3, 7]: 22.8 mM
MIC [3, 8]: 6250 µg/mL
MIC [3, 9]: 22.8 mM
Inhibition Zone (mm) C. albicans [1]: 11 ± 0.8165 mm
Inhibition Zone (mm) B. subtilis [4]: 15 ± 1.414 mm
antibacterial activity against E. coli (in words) [5]: inactive
Inhibition Zone (mm) E. coli [5]: -
melting point: 95 to 97 °C

Compound: CCc1cc2c(-c3ccccc3)cc(=O)oc2cc1OC(C)C(C)=O (centres unmarked) [Compound 2b, 6-Ethyl-7-(3-oxobutan-2-yloxy)-4-phenyl-2H-1-benzopyran-2-one]
Inhibition Zone (mm) S. aureus [2]: 22 ± 1.414 mm
MIC [3, 6]: 6250 µg/mL
MIC [3, 7]: 18.6 mM
MIC [3, 8]: 6250 µg/mL
MIC [3, 9]: 18.6 mM
Inhibition Zone (mm) C. albicans [1]: 15 ± 1.414 mm
Inhibition Zone (mm) B. subtilis [4]: 14 ± 0.8165 mm
antibacterial activity against E. coli (in words) [5]: inactive
Inhibition Zone (mm) E. coli [5]: -
melting point: 100 to 102 °C

Compound: CCc1cc2c(C)cc(=O)oc2c2c(C)c(C)oc12 [Compound 3a, 9-Ethyl-2,3,7-trimethyl-5H-furo[2,3-h]benzopyran-5-one]
Inhibition Zone (mm) S. aureus [2]: 30 ± 1.414 mm
MIC [3, 6]: 780 µg/mL
MIC [3, 7]: 3.04 mM
MIC [3, 8]: 780 µg/mL
MIC [3, 9]: 3.04 mM
photosensitizing activity against B. subtilis (in words) [3]: without any photosensitizing activity
Inhibition Zone (mm) C. albicans [1]: 16 ± 0.8165 mm
Inhibition Zone (mm) B. subtilis [4]: 20 ± 0.8165 mm
Inhibition Zone (mm) E. coli [5]: 15 ± 1.414 mm
melting point: 199 to 201 °C

Compound: CCc1cc2c(-c3ccccc3)cc(=O)oc2c2c(C)c(C)oc12 [Compound 3b, 2,3-Dimethyl-9-ethyl-7-phenyl-5H-furo[2,3-h]benzopyran-5-one]
Inhibition Zone (mm) S. aureus [2]: 22 ± 0.8165 mm
MIC [3, 6]: 3120 µg/mL
MIC [3, 7]: 9.82 mM
MIC [3, 8]: 3120 µg/mL
MIC [3, 9]: 9.82 mM
photosensitizing activity against B. subtilis (in words) [3]: without any photosensitizing activity
Inhibition Zone (mm) C. albicans [1]: 15 ± 1.414 mm
Inhibition Zone (mm) B. subtilis [4]: 10 ± 1.414 mm
Inhibition Zone (mm) E. coli [5]: 16 ± 1.414 mm
melting point: 90 to 92 °C

Compound: CCc1cc2c(C)cc(=O)oc2cc1OC1CCCCC1=O (centres unmarked) [Compound 4a, 6-Ethyl-4-methyl-7-(2-oxocyclohexyloxy)-2H-1-benzopyran-2-one]
Inhibition Zone (mm) S. aureus [2]: 24 ± 1.414 mm
MIC [3, 6]: 780 µg/mL
MIC [3, 7]: 2.6 mM
MIC [3, 8]: 3120 µg/mL
MIC [3, 9]: 10.4 mM
Inhibition Zone (mm) C. albicans [1]: 18 ± 1.414 mm
Inhibition Zone (mm) B. subtilis [4]: 15 ± 0.8165 mm
antibacterial activity against E. coli (in words) [5]: inactive
Inhibition Zone (mm) E. coli [5]: -
melting point: 160 to 162 °C

Compound: CCc1cc2c(-c3ccccc3)cc(=O)oc2cc1OC1CCCCC1=O (centres unmarked) [Compound 4b, 6-Ethyl-7-(2-oxocyclohexyloxy)-4-phenyl-2H-1-benzopyran-2-one]
Inhibition Zone (mm) S. aureus [2]: 29 ± 0.8165 mm
MIC [3, 6]: 3120 µg/mL
MIC [3, 7]: 8.62 mM
MIC [3, 8]: 3120 µg/mL
MIC [3, 9]: 8.62 mM
Inhibition Zone (mm) C. albicans [1]: 14 ± 1.414 mm
Inhibition Zone (mm) B. subtilis [4]: 17 ± 0.8165 mm
antibacterial activity against E. coli (in words) [5]: inactive
Inhibition Zone (mm) E. coli [5]: -
melting point: 150 to 152 °C

Compound: CCc1cc2c(C)cc(=O)oc2c2c3c(oc12)CCCC3 [Compound 5a, 6-Ethyl-4-methyl-8,9,10,11-tetrahydro-2H-benzofuro[2,3-h]benzopyran-2-one]
Inhibition Zone (mm) S. aureus [2]: 30 ± 0.8165 mm
MIC [3, 6]: 780 µg/mL
MIC [3, 7]: 2.76 mM
MIC [3, 8]: 3120 µg/mL
MIC [3, 9]: 11.1 mM
Inhibition Zone (mm) C. albicans [1]: 18 ± 0.8165 mm
Inhibition Zone (mm) B. subtilis [4]: 22 ± 0.8165 mm
Inhibition Zone (mm) E. coli [5]: 16 ± 1.414 mm

Compound: NC[C@H]1O[C@H](O[C@H]2[C@H](O)[C@@H](O[C@H]3O[C@H](CO)[C@@H](O)[C@H](N)[C@H]3O)[C@H](N)C[C@@H]2N)[C@H](N)C[C@@H]1O [Tobramycin, reference compound]
Inhibition Zone (mm) S. aureus [2]: 21 ± 0.8165 mm
Inhibition Zone (mm) E. coli [5]: 20 ± 1.414 mm

Compound: COc1c2occc2cc2ccc(=O)oc12 [Xanthotoxin, reference compound]
Inhibition Zone (mm) S. aureus [2]: -
MIC (mM) Test ([3]; B. subtilis, after irradiation with UV lamp (365 nm) for 20 min (photosensitizing activity)): 6.94 mM
MIC (mg mL^−1) Test ([3]; B. subtilis, after irradiation with UV lamp (365 nm) for 20 min (photosensitizing activity), 100 μL per cup): 1500 µg/mL
MIC (mM) Control ([3]; B. subtilis, without irradiation (antibacterial activity)): 57.82 mM
MIC (mg mL^−1) Control ([3]; B. subtilis, without irradiation (antibacterial activity), 100 μL per cup): 12500 µg/mL
Inhibition Zone (mm) C. albicans [1]: 15 ± 0.8165 mm
Inhibition Zone (mm) B. subtilis [4]: 13 ± 0.8165 mm
Inhibition Zone (mm) E. coli [5]: 25 ± 0.8165 mm

Continued, in another order:

melting point: 108 to 110 °C
Compound: CCc1cc2c(-c3ccccc3)cc(=O)oc2c2c3c(oc12)CCCC3 [Compound 5b, 6-Ethyl-4-phenyl-8,9,10,11-tetrahydro-2H-benzofuro[2,3-h]benzopyran-2-one]
Inhibition Zone (mm) S. aureus [2]: 26 ± 0.8165 mm
MIC [3, 6]: 780 µg/mL
MIC [3, 7]: 2.26 mM
MIC [3, 8]: 3120 µg/mL
MIC [3, 9]: 9.07 mM
antifungal activity against C. albicans (in words) [1]: inactive
Inhibition Zone (mm) C. albicans [1]: -
Inhibition Zone (mm) B. subtilis [4]: 22 ± 1.414 mm
Inhibition Zone (mm) E. coli [5]: -

melting point: 120 to 122 °C
Compound: CCc1cc2c(C)cc(=O)oc2c2c1oc1ccccc12 [Compound 6a, 6-Ethyl-4-methyl-2H-benzofuro[2,3-h]benzopyran-2-one]
Inhibition Zone (mm) S. aureus [2]: 30 ± 1.414 mm
MIC [3, 6]: 390 µg/mL
MIC [3, 7]: 1.4 mM
MIC [3, 8]: 3120 µg/mL
MIC [3, 9]: 11.2 mM
Inhibition Zone (mm) C. albicans [1]: 21 ± 0.8165 mm
Inhibition Zone (mm) B. subtilis [4]: 20 ± 1.414 mm
Inhibition Zone (mm) E. coli [5]: 23 ± 1.414 mm

melting point: 120 to 122 °C
Compound: CCc1cc2c(-c3ccccc3)cc(=O)oc2c2c1oc1ccccc12 [Compound 6b, 6-Ethyl-4-phenyl-2H-benzofuro[2,3-h]benzopyran-2-one]
Inhibition Zone (mm) S. aureus [2]: 30 ± 1.414 mm
MIC [3, 6]: 1500 µg/mL
MIC [3, 7]: 4.41 mM
MIC [3, 8]: 3120 µg/mL
MIC [3, 9]: 9.18 mM
Inhibition Zone (mm) C. albicans [1]: 15 ± 1.414 mm
Inhibition Zone (mm) B. subtilis [4]: 22 ± 1.414 mm
Inhibition Zone (mm) E. coli [5]: 17 ± 1.414 mm

Source: PMC11434840, “Discovery of Benzopyrone-Based Candidates as Potential Antimicrobial and Photochemotherapeutic Agents through Inhibition of DNA Gyrase Enzyme B: Design, Synthesis, In Vitro and In Silico Evaluation” (Pharmaceuticals, 2024)
